In brackets after ≈: the same amount, converted by molar mass. Where two headings read alike, the source gives them in different places. Numbered stars: 1 amine (or outer) side, 2 acyl side, 3 side chain; on linkers, the order of the positions; unused ones are H or OH. Bridge positions count the residues as written; N and C are the ends. Square brackets hold non-standard residues; d marks the D form. Peptide text beside a SMILES is read from it. I, II: the chains in the order shown. Actinocin(9to1) = Cc1c2oc3c(C)ccc(C(=O)[*:1])c3nc-2c(C(=O)[*:2])c(N)c1=O; NMeV = CN[C@H](C(=O)O)C(C)C; Sar = CNCC(=O)O
Tests used:
Staphylococcus aureus = assay: Comparative antibacterial activity (MIC), agar dilution method, measured simultaneously; type: cell-based; conditions: for Antibacterial activity [C], ratio of [A] to [B]: MIC Staphylococcus aureus / MIC Bacillus subtilis; for MIC / Antibacterial activity [A] (minimum inhibition concentration, MIC): Staphylococcus aureus; for MIC: read-out: Antibacterial activity [A] (minimum inhibition concentration, MIC)
Procedure: (§1) A comparative study of XK-99 with these antibiotics was conducted according to several procedures.
(§2) ^1 Antibacterial activities (minimum inhibition concentration, MIC,
(§3) γ/ml) of the individual antibiotics measured simultaneously
according to agar dilution method against [A] Staphylococcus aureus and […]

Bacillus subtilis = assay: as above; type: cell-based; conditions: for MIC: read-out: Antibacterial activity [B] (minimum inhibition concentration, MIC)
Procedure: as §1, §2, §3
according to agar dilution method against [A] Staphylococcus aureus and
[B]Bacillus subtilis, and [C] ratio of [A] to
^2 Rf values of the individual antibiotics on paper chromatography, […]

[1] = agar dilution method, measured simultaneously

Compound	Antibacterial activity [C], ratio of [A] to [B] (Staphylococcus aureus)	MIC (Staphylococcus aureus) [µg/mL]	MIC (Bacillus subtilis) [µg/mL]	MIC (Staphylococcus aureus; [1]) [µg/mL]	MIC (Bacillus subtilis; [1]) [µg/mL]	Antibacterial activity [A] (minimum inhibition concentration, MIC) (Staphylococcus aureus; [1]) [µg/mL]	Antibacterial activity [B] (minimum inhibition concentration, MIC) (Bacillus subtilis; [1]) [µg/mL]
Cc1c2oc3c(C)ccc(C(=O)N[C@@H]4C(=O)N[C@H](C(C)C)C(=O)N5CCC[C@H]5C(=O)N(C)CC(=O)N(C)[C@@H](C(C)C)C(=O)O[C@@H]4C)c3nc-2c(C(=O)N[C@@H]2C(=O)N[C@H](C(C)C)C(=O)N3CCC[C@H]3C(=O)N(C)CC(=O)N(C)[C@@H](C(C)C)C(=O)O[C@@H]2C)c(N)c1=O [Actinomycin D] (I: T[dV]P[Sar][NMeV] / II: T[dV]P[Sar][NMeV]; ester I:1-I:C, II:1-II:C; linker I:N-II:N via Actinocin(9to1))	4	0.084 (≈ 0.0669 µM)	0.021 (≈ 0.0167 µM)	–	–	–	–
COc1cccc2c1C(=O)c1c(O)c3c(c(O)c1C2=O)C[C@@](O)(C(=O)CO)C[C@@H]3O[C@H]1C[C@H](N)[C@H](O)[C@H](C)O1 [Adriamycin]	8	–	–	5.6 (≈ 10.3 µM)	0.7 (≈ 1.29 µM)	–	–
COc1cccc2c1C(=O)c1c(O)c3c(c(O)c1C2=O)C[C@@](O)(C(C)=O)C[C@@H]3O[C@H]1C[C@H](N)[C@H](O)[C@H](C)O1 [Daunomycin]	4	–	–	2.8 (≈ 5.31 µM)	0.7 (≈ 1.33 µM)	–	–
CO[C@H]1/C=C/O[C@@]2(C)Oc3c(C)c(O)c4c(c3C2=O)C(=O)C=C(NC(=O)/C(C)=C\C=C\[C@H](C)[C@H](O)[C@@H](C)[C@@H](O)[C@@H](C)[C@H](OC(C)=O)[C@@H]1C)C4=O [Rifamycin S]	< 0.05	–	–	–	–	< 0.0045	0.09
Acrasinomycin	4	–	–	–	–	0.68	0.17
Halomicin B	< 0.05	–	–	–	–	< 0.0045	0.09

From US4162305A, “Antibiotic XK-99 and process for production thereof” (Abbott Laboratories, priority 1977, dated 1979)
